Source: patent US7179819B2, “VLA-4 inhibitor compounds” (Daiichi Pharmaceutical Co., Ltd., priority 1999, dated 2007)
Counter-ions that a name gives are not always drawn.

Key:
[1] = Mouse bio-assay: serum concentration after oral dosing, determined by direct binding assay of diluted serum; details: female, Balb/c, serum, po
Protocol: A compound was dissolved or suspended with an appropriate solvent at 1 mg/mL. Female Balb/c mice (7–9 weeks old) were given the compound orally. Blood samples were collected from the postcaval vein of the anesthetized mice after fifteen minutes. Serum was prepared and stored at −20° C. Serum concentration of the compound was determined from inhibitory activities of the diluted serum by a direct binding assay using VLA-4-expressing cells and VCAM-IgG fusion protein. Serum concentration determined by this method correlated well with the concentration determined by LC/MS/MS methodologies.

in vivo = details: monkey, serum, intravenous, 2 mg/kg

| Structure (SMILES) | concentration at 15 min ([1]; 10 mg/kg) | melting point | also measured |
| --- | --- | --- | --- |
| C=CCN(CC=C)CCN(CCOc1ccc(C(=O)O)cc1)C(=O)Cc1ccc(NC(=O)Nc2ccccc2Cl)c(OC)c1 [Compound 323, 4-[2-N-(N′, N′-diallyl)ethyl-N-[4-[N′-(2-chlorophenyl)ureido]-3-methoxyphenylacetamido]ethoxy]benzoic acid sodium salt] |  |  | concentration at 15 min ([1]; 50 mg/kg): 1420 ng/mL |
| COc1cc(CC(=O)N(CCOc2ccc(C(=O)O)cc2)CCN2CCC(F)(F)C2)ccc1NC(=O)Nc1ccccc1Br [Compound 319, 4-[2-N-[2-(3,3-difluoro-1-pyrrolidinyl)ethyl]-N-[4-[N′-(2-bromophenyl)ureido]-3-methoxyphenyl]acetamido]ethoxybenzoic acid sodium salt] |  |  | concentration at 15 min ([1]; 50 mg/kg): 603 ng/mL |
| Cc1ccccc1NC(=O)Nc1cc(F)c(CC(=O)N2C[C@@H](F)C[C@H]2COc2ccc(C(=O)O)cc2)cc1F [Compound 98, 4-[1-[4-[N′-(2-methylphenyl)ureido]-2,5-difluorophenylacetyl]-(4S)-fluoro-(2S)-pyrrolidinylmethoxy]benzoic acid] | 2800 ng/mL |  |  |
| Cc1ccccc1NC(=O)Nc1ccc(CC(=O)N2C[C@@H](F)C[C@H]2COc2ccc(C(=O)O)cc2)cc1C [Compound 78, 4-[(4S)-fluoro-1-[3-methyl-4-[N′-(2-methylphenyl)ureido]phenylacetyl]-(2S)-pyrrolidinyl]methoxybenzoic acid] | 368 ng/mL |  |  |
| COc1cc(CC(=O)N2C3CCCCC3C[C@H]2COC2CCC(C(=O)O)CC2)ccc1NC(=O)Nc1ccccc1Br (stereo partly drawn) [Compound 179, cis-4-[-1-[4-[N′-(2-bromophenyl)ureido]-3-methoxylphenylacetyl]-(2S)-octahydroindolylmethoxy]cyclohexanecarboxylic acid] | 428 ng/mL | 115 to 120 °C |  |
| COc1cc(CC(=O)N2C[C@@H](Cl)C[C@H]2COc2ccc(C(=O)O)cc2)ccc1NC(=O)Nc1ccccc1Cl [Compound 102, 4-[(4S)-chloro-1-[3-methoxy-4-[N′-(2-chlorophenyl)ureido]phenylacetyl]-(2S)-pyrrolidinyl]methoxybenzoic acid] | 503 ng/mL | 126 to 131 °C |  |
| CC(C)NCC(O)COc1ccc(CC(N)=O)cc1 (stereo not shown) [ATENOLOL, reference compound] |  |  | concentration at 5 min (in vivo): 4060 ng/mL; concentration at 30 min (in vivo): 1190 ng/mL; concentration at 1 hr (in vivo): 771 ng/mL; concentration at 2 hr (in vivo): 479 ng/mL; concentration at 4 hr (in vivo): 348 ng/mL; concentration at 8 hr (in vivo): 137 ng/mL |
| COc1cc(CC(=O)N(CCOc2ccc(C(=O)OC(C)C)cc2)CCN2CCOCC2)ccc1NC(=O)Nc1ccccc1C [Compound 318, isopropyl 4-[2-N-[2-(4-morpholinyl)ethyl]-N-[3-methoxy-4-[N′-(2-methylphenyl)ureido]phenyl]acetamido]ethoxybenzoate] |  |  | concentration at 30 min ([1]; 50 mg/kg): 2100 ng/mL |
| COc1cc(CC(=O)N2C[C@@H](Oc3ccc4ccccc4c3)C[C@H]2COc2ccc(C(=O)O)cc2)ccc1NC(=O)Nc1ccccc1Cl [Compound 124, 4-[(2S,4S)-1-[4-[N′-(2-chlorophenyl)ureido]-3-methoxyphenylacetyl]-4-(2-naphtyloxy)-2-pyrrolidinyl]methoxybenzoic acid] | 841 ng/mL |  |  |
| COc1cc(CC(=O)N2CCC[C@H]2COc2ccc(C(=O)O)cc2)ccc1NC(=O)Nc1ccccc1Cl [Compound 58, 4-[1-[4-[N′-(2-chlorophenyl)ureido]-3-methoxylphenylacetyl]-(2S)-pyrrolindinyl]methoxybenzoic acid] |  |  | concentration at 30 min ([1]; 50 mg/kg): 3610 ng/mL |
| COc1cc(CC(=O)N2[C@H](COc3ccc(C(=O)O)cc3)CC[C@@H]2c2ccccc2)ccc1NC(=O)Nc1ccccc1Cl [Compound 146, 4-[1-[4-[N′-(2-chlorophenyl)ureido]-3-methoxyphenylacetyl]-5-(R)-phenyl-2-(S)-pyrrolidinylmethoxy]benzoic acid] | 527 ng/mL |  |  |
| COc1cc(CC(=O)N2C[C@@H](OC)C[C@H]2COc2ccc(C(=O)O)cc2)ccc1NC(=O)Nc1ccccc1Br [Compound 134, 4-[(2S,4S)-1-[4-[N′-(2-bromophenyl)ureido]-3-methoxyphenylacetyl]-4-methoxy-2-pyrrolidinyl]methoxybenzoic acid] | 224 ng/mL |  |  |
| O=C(Nc1ccc(CC(=O)N2C[C@@H](F)C[C@H]2COc2ccc(C(=O)O)cc2)cc1)Nc1ccccc1C(F)(F)F [Compound 75, 4-[(4S)-fluoro-1-[4-[N′-(2-trifluoromethylphenyl)ureido]phenylacetyl]-(2S)-pyrrolidinylmethoxy]benzoic acid] |  | 130 to 135 °C |  |
| COc1cc(CC(=O)N2CCC[C@H]2COc2ccc(C(=O)O)cc2)ccc1NC(=O)Nc1ccccc1Br [Compound 59, 4-[1-[4-[N′-(2-bromophenyl)ureido]-3-methoxylphenylacetyl]-(2S)-pyrrolidinyl]methoxybenzoic acid] |  | 120 to 125 °C |  |
| COc1cc(CC(=O)N[C@@H](C)COc2ccc(C(=O)O)cc2Cl)ccc1NC(=O)Nc1ccccc1C [Compound 275, (S)-3-chloro-4-[2-[3-methoxy-4-[N′-(2-methylphenyl)ureido]phenylacetylamino]-1-propoxy]benzoic acid] |  | 198 to 201 °C |  |
| COc1cc(CC(=O)N2C[C@@H](Oc3ccc4ncccc4c3)C[C@H]2COc2ccc(C(=O)O)cc2)ccc1NC(=O)Nc1ccccc1Br [Compound 122] |  | 149 to 153 °C |  |
| CN[C@@H]1C[C@@H](COc2ccc(C(=O)O)cc2)N(C(=O)Cc2ccc(NC(=O)Nc3ccccc3C)c(OC)c2)C1 [Compound 153, 4-[trans-1-[3-methoxy-4-[N′-(2-methylphenyl)ureido]phenylacetyl]4-methylamino-(2S)-pyrrolidinyl]methoxybenzoic acid] |  | 162 to 164 °C |  |
| COc1cc(CC(=O)N(C)CCOc2ccc(C(=O)O)cc2N2CCCCC2)ccc1NC(=O)Nc1ccccc1F [Compound 289, 3-(1-piperidinyl)-4-[[2-[3-methoxy-4-[N′-(2-fluorophenyl)ureido]phenylacetyl]methylamino]ethoxy]benzoic acid] |  | 125 to 130 °C |  |
| Cc1cc(CC(=O)N2C[C@@H](F)C[C@H]2COc2ccc(C(=O)O)cc2)ccc1NC(=O)Nc1ccccc1F [Compound 74, 4-[(4S)-fluoro-1-[4-[N′-(2-fluorophenyl)ureido]-3-methylphenylacetyl]-(2S)-pyrrolidinylmethoxy]benzoic acid] |  | 137 to 143 °C |  |
| COc1cc(CC(=O)N2C3CCCCC3C[C@H]2COC2CCC(C(=O)O)CC2)ccc1NC(=O)Nc1ccccc1Cl (stereo partly drawn) [Compound 178, cis-4-[1-[4-[N′-(2-chlorophenyl)ureido]-3-methoxylphenylacetyl]-(2S)-octahydroindolylmethoxy]cyclohexanecarboxylic acid] |  | 120 to 121 °C |  |
| COc1cc(CC(=O)N(C)CCOc2ccc(C(=O)O)cc2N(C)C(C)C)ccc1NC(=O)Nc1ccccc1C [Compound 288, 3-(N-isopropyl-N-methylamino)-4-[[2-[3-methoxy-4-[N′-(2-methylphenyl)ureido]phenylacetyl]methylamino]ethoxy]benzoic acid] |  | 130 to 135 °C |  |
| C#CCN(CCOc1ccc(C(=O)O)cc1)C(=O)Cc1ccc(NC(=O)Nc2ccccc2Cl)c(OC)c1 [Compound 309, 4-[2-N-[4-[N′-(2-chlorophenyl)ureido]-3-methoxyphenyl]-N-propargylacetamido]-ethoxybenzoic acid] | 669 ng/mL |  |  |
| COc1cc(CC(=O)NCCOc2ccc(C(=O)O)cc2[N+](=O)[O-])ccc1NC(=O)Nc1ccccc1C [Compound 257, 3-nitro-4-[2-[3-methoxy-4-[N′-(2-methylphenyl)ureido]phenylacetyl]aminoethoxy]benzoic acid] |  | 112 to 115 °C |  |
| COc1cc(CC(=O)N2C3CCCCC3C[C@H]2COc2ccc(C(=O)O)cc2)ccc1NC(=O)Nc1ccccc1Cl (stereo partly drawn) [Compound 166, 4-[1-[4-[N′-(2-chlorophenyl)ureido]-3-methoxyphenylacetyl]-(2S)-octahydroindolylmethoxy]benzoic acid] | 360 ng/mL | 133 to 136 °C |  |
| COc1cc(CC(=O)N(C)CCNc2ccc(C(=O)O)c(NC(C)=O)c2)ccc1NC(=O)Nc1ccccc1Br [Compound 303, 2-acetylamino-4-[2-N-[4-[N′-(2-bromophenyl)ureido]-3-methoxyphenyl]-N-methylacetamido]ethylaminobenzoic acid] |  | 155 to 160 °C |  |
| Cc1ccccc1NC(=O)Nc1ccc(CC(=O)N2C[C@@H](F)C[C@H]2COc2ccc(C(=O)O)cc2)c(F)c1F [Compound 97, 4-[1-[4-[N′-(2-methylphenyl)ureido]-2,3 difluorophenylacetyl]-(4S)-fluoro-(2S)-pyrrolidinylmethoxy]benzoic acid] | 1730 ng/mL |  |  |
| COc1cc(CC(=O)N[C@@H](C)COc2ccc(C(=O)O)cc2)ccc1NC(=O)Nc1ccccc1Br [Compound 294, (S)-4-[2-[3-methoxy-4-[N′-(2-bromophenyl)ureido]phenylacetylamino]-1-propoxy]benzoic acid] |  | 202 to 205 °C |  |
| COc1cc(CC(=O)N2CCC[C@H]2COC2CCC(C(=O)O)CC2)ccc1NC(=O)Nc1ccccc1Cl (stereo partly drawn) [Compound 175, 4-[[1-[4-[N′-(2-chlorophenyl)ureido]-3-methoxylphenylacetyl]-(2S)-pyrrolidinyl]methoxy]cyclohexanecarboxylic acid] |  | 111 to 115 °C |  |
| Cc1ccccc1NC(=O)Nc1ccc(CC(=O)N2CCC[C@H]2COc2ccc(C(=O)O)cc2)cc1C [Compound 83, 4-[1-[3-methyl-4-[N′-(2-methylphenyl)ureido]phenylacetyl]-(2S)-pyrrolidinylmethoxy]benzoic acid] |  | 191 to 193 °C |  |
